From patent US9957214B2, “Multifunctional radical quenchers” (ARIZONA BOARD OF REGENTS ON BEHALF OF ARIZONA STATE …, priority 2012, dated 2018)
Read-outs that look alike come from different tables or passages of the source.

Key:
[1] = test system: Friedreich's ataxia lymphoblast cell line GM15850; experiment: Cytoprotection (trypan blue exclusion assay) of DEM-treated FRDA lymphocytes; type: cell-based; conditions: DEM alone 18 ± 10% viability; for viability at 5 µM / viability at 0.1 µM / viability at 0.5 µM / viability at 2.5 µM: Homo sapiens, GM15850, read-out: Cytoprotection (cell viability, % of untreated control)
Protocol: Cell viability was determined by trypan blue exclusion assay in Friedreich's ataxia lymphoblast cell line GM15850 (Coriell Institute, New Jersey). This technique was used to assess the cytoprotective effects of the tested compounds in cultured cells treated with DEM to induce cell death by GSH depletion. The viability of DEM-treated FRDA cells was determined by their ability to exclude the dye trypan blue. Viable cells exclude trypan blue, whereas non-viable cells take up the dye and stain blue. Briefly, FRDA lymphocytes were grown in RPMI 1640 medium (Gibco) supplemented with 15% fetal calf serum, 2 mM glutamine (HyClone) and 1% penicillin-streptomycin mix (Cellgro). Cells were seeded at a density of 5×10^5 cells/mL and treated with different concentrations of the indicated compounds. Cells were incubated at 37° C. in a humidified atmosphere of 5% CO2 in air for 17 h. After pre-incubation, the cells were treated with 5 mM DEM. Cell viability was determined by staining cells with 0.4% trypan blue using a hemacytometer. At least 500 cells were counted in each experimental group. At the time of assay, <20% of DEM treated cells were viable (trypan blue negative), whereas in non DEM-treated control, >90% cells were viable. Cell viability was expressed as the percentage of control. Data are expressed as means±S.E.M. (n=3).
Cell viability was determined by trypan blue exclusion assay in Friedreich's ataxia lymphoblast cell line GM15850 (Coriell Institute). This technique was used to assess the cytoprotective effects of the compounds in cultured cells treated with diethyl maleate (DEM) to induce cell death by glutathione (GSH) depletion. The viability of DEM-treated FRDA cells was determined by their ability to exclude the dye trypan blue. Viable cells exclude trypan blue, whereas non-viable cells take up the dye and stain blue. […] Benzoquinone analogue 9 afforded greater cyoprotection to FRDA lymphocytes at 5 μM concentration than did the tert-butyl ester 6 (74 vs 50%).

[2] = test system: FRDA lymphocytes; experiment: Suppression of lipid peroxidation (C11-BODIPY581/591, FACS) in FRDA lymphocytes treated with diethyl maleate; type: cell-based; conditions: DEM; for inhibition at 5 µM / inhibition at 10 µM / inhibition at 1 µM: Lymphocyte, read-out: Scavenging activity (%), suppression of lipid peroxidation
Description: Several methods for assaying lipid peroxidation in vitro have been developed (Kuypers et al. (1987) Biochim Biophys Acta. 25, 266-274; Pap et al. (1999) FEBS Lett. 453, 278-282; Drummen et al. (2002) Free RadicBiol Med. 33, 473-490). Almost all of these methods are based on inhibition of free radical-induced oxidation reactions. A widely used fluorescence assay for lipid peroxidation uses lipid soluble cis-parinaric acid as a probe. cis-parinaric acid loses its fluorescence (λexc/em: 320/432 nm) upon interaction with peroxyl radicals and retains its fluorescence in the presence of radical quenchers. cis-parinaric acid is, however, air sensitive, photolabile and absorbs light in the UV region of the spectrum (at ˜320 nm). […] In practical terms, the results obtained using cis-parinaric as a probe for lipid peroxidation are confounded due to the overlapping of the compounds emission spectra with the cis-parinaric emission spectrum. C11-BODIPY^581/591 Oxidation to Measure Lipid Peroxidation To overcome the problem of spectral overlap using cis-parinaric acid, a fluorescence assay for lipid peroxidation using a lipophilic probe belonging to the BODIPY class of fluorescent dyes was used C11-BODIPY^581/591 (4,4-difluoro-5(4-phenyl-1,3-butadienyl)-4-bora-3a, 4a-diaza-s-indacene-3-propionic acid) fluorescent shifts from red to green upon oxidation. C11-BODIPY^581/591 (Molecular Probes, Eugene, Oreg., USA) stock solution concentrations were determined by measuring the absorption of C11-BODIPY^581/591 at 582 nm using a molar extinction coefficient of 140,000 mol^−1 cm^−1 (R. P. Haugland, (1999) Handbook of Fluorescent Probes and Research Chemicals, Molecular Probes, Inc., Eugene, Oreg.). The lipid peroxidation inducer 2,2′-Azobis (2-amidino-propane dihydrochloride) (AAPH) and the antioxidant compound α-tocopherol (α-TOH) were obtained from Sigma (St. Louis, Mo., USA). Phospholipid bilayers were prepared from 1-stearoyl-2-oleoyl-phosphatidylcholine (SOPC) and 1,2-dilinoleoyl-phosphatidylcholine (DLPC) and were purchased from Avanti® polar lipids, Inc., (Alabaster, Ala., USA). Preparation of Liposomes Phosphotidylcholine (PC) liposomes were prepared as described before (Guey-Shuang et al. (1982) Lipids. 17, 403-413). Briefly, DLPC (25 mg) were dissolved in chloroform and the solvent was removed by nitrogen evaporation (˜2 hours) to give a thin film of PC in a round bottom flask. The lipid film was hydrated with 50 mL of 10 mM Tris-HCl (pH 7.4), 100 mM KCl, shaken and sonicated for 15 seconds. The liposomes obtained were filtered several times through […] membrane filter. Measurement of C11-BODIPY^581/591 Oxidation C11-BODIPY^581/591 was incorporated into liposomes and oxidized by peroxyl radicals derived from the decomposition of AAPH in the presence and absence of compounds. Liposomes (1 mg/mL), suspended in 10 mM Tris-HCl (pH 7.4), 100 mM KCl, were transferred to a quartz 1 mL cuvette and placed in a Varian Cary Eclipse fluorometer (Varian, Cary, N.C.) equipped with a thermostatted cuvette holder at 40° C. Liposomes were pre-incubated for 10 min with 200 nM C11-BODIPY^581/591 to allow their incorporation into the lipid phase of the liposomes. After the addition of AAPH (10 mM) the decay of the red fluorescence was followed at λ exc=570 nm, λ em=600 nm. Relative fluorescence units were normalized to 100% intensity. Results obtained were verified by repeating experiments N=3 independent experiments. Measurement of C11-BODIPY^581/591 Oxidation in Cell Culture A quantitative FACS analysis of lipid peroxidation of FRDA lymphocytes, which had been treated with diethyl maleate following incubation in the presence and absence of the test compounds, was measured as described (Khdour et al. (2011) Pharmaceut. Res. 28, 2896-2909). Briefly, FRDA lymphocytes (5×10^5 cell/mL) were treated with the test compounds at final concentrations of 5 and 10 μM and incubated at 37° C. for 16 h in a humidified atmosphere containing 5% CO2 in air. […]

[3] = target: bovine heart mitochondrial complex I (Bos taurus, UniProt P03887+P17694+P42026); experiment: Complex I (NADH-Q1 oxidoreductase) inhibition in submitochondrial particles; type: biochemical
Sequence of bovine heart mitochondrial complex I (P25708 21-464): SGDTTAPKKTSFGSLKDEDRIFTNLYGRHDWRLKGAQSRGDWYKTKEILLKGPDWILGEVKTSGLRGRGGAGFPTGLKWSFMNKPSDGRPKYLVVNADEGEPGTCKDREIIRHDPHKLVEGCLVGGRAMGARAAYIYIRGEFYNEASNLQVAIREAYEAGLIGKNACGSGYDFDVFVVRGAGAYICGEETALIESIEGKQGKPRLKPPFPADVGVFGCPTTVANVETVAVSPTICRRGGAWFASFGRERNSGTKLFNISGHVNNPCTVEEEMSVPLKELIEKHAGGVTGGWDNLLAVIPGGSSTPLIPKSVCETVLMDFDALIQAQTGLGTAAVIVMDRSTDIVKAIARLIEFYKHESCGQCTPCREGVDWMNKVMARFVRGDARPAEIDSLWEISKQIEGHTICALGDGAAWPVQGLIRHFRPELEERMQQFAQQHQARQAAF
Sequence of bovine heart mitochondrial complex I (P42026 38-216): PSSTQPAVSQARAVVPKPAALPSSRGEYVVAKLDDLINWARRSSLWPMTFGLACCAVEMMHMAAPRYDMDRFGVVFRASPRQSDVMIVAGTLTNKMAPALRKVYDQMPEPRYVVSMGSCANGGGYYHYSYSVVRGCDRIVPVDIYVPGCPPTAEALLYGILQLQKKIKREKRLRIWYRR
Sequence of bovine heart mitochondrial complex I (P17694 34-463): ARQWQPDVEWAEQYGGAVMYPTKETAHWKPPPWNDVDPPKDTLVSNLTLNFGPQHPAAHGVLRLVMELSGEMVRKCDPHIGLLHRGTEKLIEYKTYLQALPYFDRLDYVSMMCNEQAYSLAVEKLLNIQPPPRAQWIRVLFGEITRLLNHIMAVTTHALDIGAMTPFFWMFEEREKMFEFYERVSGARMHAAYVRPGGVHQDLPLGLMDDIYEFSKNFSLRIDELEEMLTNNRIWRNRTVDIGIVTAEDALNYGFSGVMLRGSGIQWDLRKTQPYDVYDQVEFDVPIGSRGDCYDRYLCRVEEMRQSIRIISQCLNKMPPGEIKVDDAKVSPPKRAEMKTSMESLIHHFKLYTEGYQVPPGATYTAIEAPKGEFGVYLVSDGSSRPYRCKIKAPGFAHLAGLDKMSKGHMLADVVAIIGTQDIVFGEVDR
Sequence of bovine heart mitochondrial complex I (P15690 24-727, further chain): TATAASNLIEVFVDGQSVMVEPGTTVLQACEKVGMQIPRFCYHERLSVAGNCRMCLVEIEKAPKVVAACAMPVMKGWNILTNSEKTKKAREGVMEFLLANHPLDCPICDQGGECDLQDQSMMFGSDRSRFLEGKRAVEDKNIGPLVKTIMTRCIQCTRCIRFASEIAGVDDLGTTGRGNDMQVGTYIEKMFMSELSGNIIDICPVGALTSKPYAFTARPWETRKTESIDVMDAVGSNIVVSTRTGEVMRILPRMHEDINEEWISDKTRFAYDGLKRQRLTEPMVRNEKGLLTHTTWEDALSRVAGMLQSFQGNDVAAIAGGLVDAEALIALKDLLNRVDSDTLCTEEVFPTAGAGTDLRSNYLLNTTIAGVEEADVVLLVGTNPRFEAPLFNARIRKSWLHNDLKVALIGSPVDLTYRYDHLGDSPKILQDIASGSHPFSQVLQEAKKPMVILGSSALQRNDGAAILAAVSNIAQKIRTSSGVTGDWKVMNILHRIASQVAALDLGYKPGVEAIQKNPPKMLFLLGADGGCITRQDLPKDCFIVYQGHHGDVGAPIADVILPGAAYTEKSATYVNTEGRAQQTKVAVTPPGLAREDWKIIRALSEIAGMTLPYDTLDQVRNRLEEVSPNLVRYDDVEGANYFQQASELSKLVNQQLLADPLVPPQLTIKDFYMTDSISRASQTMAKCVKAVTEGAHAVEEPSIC
Sequence of bovine heart mitochondrial complex I (P03887 whole entry): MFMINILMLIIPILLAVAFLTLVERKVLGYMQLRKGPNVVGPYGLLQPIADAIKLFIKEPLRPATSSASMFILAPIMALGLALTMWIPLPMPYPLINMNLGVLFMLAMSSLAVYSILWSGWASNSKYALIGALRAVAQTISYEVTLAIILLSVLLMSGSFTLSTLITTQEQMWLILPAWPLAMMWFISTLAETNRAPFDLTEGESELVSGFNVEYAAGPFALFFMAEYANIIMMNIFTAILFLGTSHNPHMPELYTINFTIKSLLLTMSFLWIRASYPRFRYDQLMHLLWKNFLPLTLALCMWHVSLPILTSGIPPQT
Sequence of bovine heart mitochondrial complex I (P42028 37-212, further chain): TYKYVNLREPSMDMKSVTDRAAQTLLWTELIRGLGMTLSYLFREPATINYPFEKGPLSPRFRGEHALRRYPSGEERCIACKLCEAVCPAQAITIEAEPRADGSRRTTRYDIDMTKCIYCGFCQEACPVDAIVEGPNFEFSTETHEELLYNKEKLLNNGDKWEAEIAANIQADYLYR

[4] = test system: NADH oxidase (complexes I, III and IV); experiment: NADH oxidase activity (complexes I, III and IV) in submitochondrial particles; type: biochemical, bovine
[5] = test system: CEM leukemia cells; experiment: Suppression of ROS production (DCFH-DA flow cytometry) in DEM-treated CEM leukemia cells; type: cell-based; conditions: 5 μM; CEM leukemia cells pretreated with DEM
Protocol: FIG. 1. Flow cytometric analysis of CEM leukemia lymphocytes (gray bars) and FRDA lymphocytes (black bars) stained with dichlorodihydrofluorescein diacetate (DCFH-DA) for 20 min, following pretreatment with the test compounds at 5 μM concentration for 16 h, and subsequent treatment with diethyl maleate (DEM) for 60 or 80 min to induce the production of ROS in CEM and FRDA lymphocytes, respectively. Data shown represent the mean±SEM of two different experiments run as duplicates.
Intracellular ROS production was measured in FRDA lymphocyte cells (GM15850, Coriell Cell Repositories, Camden, N.J.) using the oxidant sensitive fluorescent probe 2,7-dichlorodihydrofluorescein diacetate (DCFH-DA) (Molecular Probes) as described previously (Khdour et al. (2011) Pharm. Res. 28, 2896-2909). One mL of FRDA lymphocyte cells or leukemic CEM cells (5×10^5 cells) were plated in a 24-well plate, treated with the test compounds and incubated at 37° C. for 16 h in a humidified atmosphere containing 5% CO2 in air. Cells were treated with 5 mM diethyl maleate (DEM) for 80 min or 60 min respectively, collected by centrifugation at 300×g for 3 min and then washed with phosphate buffered saline (PBS) (Life Technologies). Cells were resuspended in PBS containing 20 mM glucose and incubated at 37° C. in the dark for […] with 10 μM DCFH-DA. Cells were collected by centrifugation at 300×g for 3 min and then washed with PBS. The samples were analyzed immediately by flow cytometry (C6 Accuri, BD Biosciences, San Jose, Calif.), using a 488 nm excitation laser and the FL1-H channel 530±15 nm emission filter. The generation of ROS, mainly peroxides, was detected as a result of the oxidation of DCFH. In each analysis, 10,000 events were recorded after cell debris was electronically gated out. Results obtained were verified by running duplicates and repeating experiments in three independent runs. Results were expressed as percentage of ROS scavenging activity.
The ability of the synthesized analogues to quench ROS and lipid peroxidation was evaluated in FRDA lymphocytes or leukemic CEM cells. These cells were placed under oxidative stress by depleting them of glutathione (GSH) using diethyl maleate (DEM). Depletion of glutathione by treatment FRDA lymphocytes or leukemic CEM cells with DEM has been used to induce oxidative stress in cellular systems by generation of ROS. Intracellular ROS production was measured using the oxidant sensitive fluorescent probe 2,7-dichlorodihydrofluorescein diacetate (DCFH-DA) (Molecular Probes).

[6] = submitochondrial particles, 30° C.; read-out: Complex I inhibition IC50
[7] = submitochondrial particles, 30° C.; read-out: Complex I inhibition Imax

## CCCCCCCCCCCCCC1=C(O)C(=O)C=C(NCCCC(=O)OC(C)(C)C)C1=O [Compound 6, tert-butyl 4-(4-hydroxy-3,6-dioxo-5-tridecylcyclohexa-1,4-dienylamino)butanoate]
other
  melting point: 96 to 97 °C
[1]; 5 μM
  viability at 5 µM: 50%
[2]; 5 μM
  inhibition at 5 µM: 26 ± 6.7%
[2]; 10 μM
  inhibition at 10 µM: 37 ± 1.4%
[3]; [6]
  IC50: 10 ± 0.6 µM
[3]; [7]
  Emax: 64 ± 13%

## CCCCCCCCCCCCCC1=C(OC)C(=O)C=C(NCCCCCC)C1=O [Compound 20, 5-(hexylamino)-2-methoxy-3-tridecylcyclohexa-2,5-diene-1,4-dione]
other
  melting point: 110 °C (dec.)
[4]; 1 μM
  NADH oxidase activity (Complex I, III, IV) %: 74 ± 16%
[4]; 5 μM
  NADH oxidase activity (Complex I, III, IV) %: 47 ± 3.0%
[1]
  viability at 0.1 µM: 20 ± 3.2%
  viability at 0.5 µM: 50 ± 5.2%
  viability at 2.5 µM: 66 ± 6.3%
[1]; 5 μM
  viability at 5 µM: 80 ± 4%
[2]
  inhibition at 1 µM: 14 ± 1.3%
[2]; 5 μM
  inhibition at 5 µM: 61 ± 7.5%
[2]; 10 μM
  inhibition at 10 µM: 70%
[3]; [6]
  IC50: 482 ± 24 µM
[3]; [7]
  Emax: > 85%

## CCCCCCCCCCCCCC1=C(NCCCC(=O)OC(C)(C)C)C(=O)C(C)=C(NCCCC(=O)OC(C)(C)C)C1=O [Compound 44, 2,5-bis(tert-butyl 4-aminobutanoate)-3-methyl-6-tridecylcyclohexa-2,5-diene-1,4-dione]
[4]; 1 μM
  NADH oxidase activity (Complex I, III, IV) %: 95 ± 2^ %
[4]; 5 μM
  NADH oxidase activity (Complex I, III, IV) %: 92 ± 3^ %
[4]; 10 μM
  NADH oxidase activity (Complex I, III, IV) %: 84 ± 3%
[1]; 1 μM
  Cytoprotection (cell viability, % of untreated control): 15 ± 2%
[1]; 5 μM
  Cytoprotection (cell viability, % of untreated control): 98 ± 6^ %
[2]; 5 μM
  Scavenging activity (%), suppression of lipid peroxidation: 8 ± 3%
[2]; 10 μM
  Scavenging activity (%), suppression of lipid peroxidation: 13 ± 3^ %
[5]
  Scavenging activity (%), suppression of ROS production: 0%

## CCCCCCCCCCCCCC1=C(O)C(=O)C=C(NCCCCCC)C1=O [Compound 19, 5-(hexylamino)-2-hydroxy-3-tridecylcyclohexa-2,5-diene-1,4-dione]
other
  melting point: 70 °C (dec.)
[4]; 1 μM
  NADH oxidase activity (Complex I, III, IV) %: 67 ± 6.0%
[4]; 5 μM
  NADH oxidase activity (Complex I, III, IV) %: 39 ± 1.0%
[1]
  viability at 0.1 µM: 18 ± 2.1%
  viability at 0.5 µM: 22 ± 2.6%
  viability at 2.5 µM: 43 ± 4.4%
[1]; 5 μM
  viability at 5 µM: 65 ± 5.2%
[2]
  inhibition at 1 µM: 2 ± 0.3%
[2]; 5 μM
  inhibition at 5 µM: 27 ± 4.5%
[2]; 10 μM
  inhibition at 10 µM: 38%
[3]; read-out: Complex I inhibition IC50; submitochondrial particles, 30° C.
  IC50: 20 ± 1.7 µM
[3]; read-out: Complex I inhibition Imax
  Emax: 77 ± 6.2%

## CCCCCCCCCCCCCC1=C(NCCCC(=O)OCCCC)C(=O)C(C)=C(NCCCC(=O)OCCCC)C1=O [Compound 47, 2,5-bis(butyl 4-aminobutanoate)-3-methyl-6-tridecylcyclohexa-2,5-diene-1,4-dione]
[4]; 1 μM
  NADH oxidase activity (Complex I, III, IV) %: 77 ± 1^ %
[4]; 5 μM
  NADH oxidase activity (Complex I, III, IV) %: 68 ± 1^ %
[4]; 10 μM
  NADH oxidase activity (Complex I, III, IV) %: 69 ± 2%
[1]; 1 μM
  Cytoprotection (cell viability, % of untreated control): 9 ± 2%
[1]; 5 μM
  Cytoprotection (cell viability, % of untreated control): 17 ± 3^ %
[2]; 5 μM
  Scavenging activity (%), suppression of lipid peroxidation: 7 ± 1%
[2]; 10 μM
  Scavenging activity (%), suppression of lipid peroxidation: 19 ± 2^ %
[5]
  Scavenging activity (%), suppression of ROS production: 25 ± 11%

## C=CCCCCCCCCCC1=C(OC)C(=O)C=C(OC)C1=O
other
  melting point: 30 to 31 °C

## C=CCCCCCCCCCC1=C(OC)C(=O)C=C(NCCCCC=C)C1=O [Compound 38, 5-(hex-5-enylamino)-2-methoxy-3-(undec-10-enyl)cyclohexa-2,5-diene-1,4-dione]
other
  melting point: 45 to 46 °C
